Data from US9938258B2 (Karyopharm Therapeutics Inc., priority 2012, dated 2018).
Like-named read-outs stand apart in the source and are kept apart here.

Experiments:
MS751 cells = assay: MTT cell proliferation assay, MS751; assay type: cell-based, human; conditions: Homo sapiens
Method in brief: (§1)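 Cells were seeded at 5,000-10,000 per well, left to attach overnight, then exposed to eight compound concentrations from 1 nM to 30 μM. After about 4 h with MTT, solubilized formazan was read at 490 nm and percent inhibition versus negative control was calculated.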

Z138 cells = assay: MTT cell proliferation assay, Z138; assay type: cell-based; conditions: Homo sapiens
Method in brief: as §1

3T3 cells = assay: MTT cell proliferation assay, 3T3; assay type: cell-based, mouse; conditions: Mus musculus
Method in brief: as §1

[1] = MS751, MS751 cells, approximately 64-72 hours incubation, read-out: MTT Assay IC50, MS751
[2] = Z-138, Z138 cells, approximately 64-72 hours incubation, read-out: MTT Assay IC50, Z138
[3] = NIH3T3, 3T3 cells, approximately 64-72 hours incubation, read-out: MTT Assay IC50, 3T3
[4] = MS751, read-out: MTT Assay IC50, MS751
[5] = Z-138, read-out: MTT Assay IC50, Z138
[6] = NIH3T3, read-out: MTT Assay IC50, 3T3

| SMILES | IC50 (MS751 cells; [1]) | IC50 (Z138 cells; [2]) | IC50 (3T3 cells; [3]) | IC50 (MS751 cells; [4]) | IC50 (Z138 cells; [5]) | IC50 (3T3 cells; [6]) |
| --- | --- | --- | --- | --- | --- | --- |
| Nc1ccc(/C=C/C(=O)NCC2Cc3cc(-c4cc(F)c(C(=O)N5CC(F)(F)C5)c(F)c4)cc(Cl)c3O2)cn1 (stereo not drawn) [Compound 335, (E)-3-(6-aminopyridin-3-yl)-N-((7-chloro-5-(4-(3,3-difluoroazetidine-1-carbonyl)-3,5-difluorophenyl)-2,3-dihydrobenzofuran-2-yl)methyl)acrylamide] | < 100 nM | < 100 nM | 100 to 5000 nM |  |  |  |
| Nc1ccc(/C=C/C(=O)NCC2Cc3cc(-c4ccc(C(=O)N5CC(F)(F)C5)c(F)c4)cc(Cl)c3O2)cn1 (stereo not drawn) [Compound 336, (E)-3-(6-aminopyridin-3-yl)-N-((7-chloro-5-(4-(3,3-difluoroazetidine-1-carbonyl)-3-fluorophenyl)-2,3-dihydrobenzofuran-2-yl)methyl)acrylamide] | < 100 nM | < 100 nM | 100 to 5000 nM |  |  |  |
| Nc1ccc(/C=C/C(=O)NCC2Cc3cc(-c4ccc(C(=O)N5CC(F)(F)C5)c(F)c4F)cc(Cl)c3O2)cn1 (stereo not drawn) [Compound 337] | < 100 nM | < 100 nM | 100 to 5000 nM |  |  |  |
| Nc1ccc(/C=C/C(=O)NCC2Cc3cc(-c4ccc(C(=O)N5CC(F)(F)C5)cn4)cc(Cl)c3O2)cn1 (stereo not drawn) [Compound 338, (E)-3-(6-aminopyridin-3-yl)-N-((7-chloro-5-(5-(3,3-difluoroazetidine-1-carbonyl)pyridin-2-yl)-2,3-dihydrobenzofuran-2-yl)methyl)acrylamide] | < 100 nM | < 100 nM | 100 to 5000 nM |  |  |  |
| Nc1ccc(/C=C/C(=O)NCC2Cc3cc(-c4ccc(C(=O)N5CCCCC5)cn4)cc(Cl)c3O2)cn1 (stereo not drawn) [Compound 339, (E)-3-(6-aminopyridin-3-yl)-N-((7-chloro-5-(5-(piperidine-1-carbonyl)pyridin-2-yl)-2,3-dihydrobenzofuran-2-yl)methyl)acrylamide] | 100 to 5000 nM | < 100 nM | 5000 to 30000 nM |  |  |  |
| Nc1ccc(/C=C/C(=O)NCC2Cc3c(-c4ccc(C(=O)N5CC(F)(F)C5)cc4)ccc(Cl)c3O2)cn1 (stereo not drawn) [Compound 340, (E)-3-(6-aminopyridin-3-yl)-N-((7-chloro-4-(4-(3,3-difluoroazetidine-1-carbonyl)phenyl)-2,3-dihydrobenzofuran-2-yl)methyl)acrylamide] | < 100 nM | 100 to 5000 nM | < 100 nM |  |  |  |
| Nc1ccc(/C=C/C(=O)NCC2Cc3c(-c4ccccc4C(=O)N4CC(F)(F)C4)ccc(Cl)c3O2)cn1 (stereo not drawn) [Compound 341, (E)-3-(6-aminopyridin-3-yl)-N-((7-chloro-4-(2-(3,3-difluoroazetidine-1-carbonyl)phenyl)-2,3-dihydrobenzofuran-2-yl)methyl)acrylamide] | < 100 nM | 100 to 5000 nM | < 100 nM |  |  |  |
| Nc1ccc(/C=C/C(=O)NCC2Cc3cc(-c4ccc(C(=O)N5CCNCC5)nc4)cc(Cl)c3O2)cn1 (stereo not drawn) [Compound 342, (E)-3-(6-aminopyridin-3-yl)-N-((7-chloro-5-(6-(piperazine-1-carbonyl)pyridin-3-yl)-2,3-dihydrobenzofuran-2-yl)methyl)acrylamide] | 100 to 5000 nM | > 30000 nM | 100 to 5000 nM |  |  |  |
| CN1C(=O)c2ccc(-c3cc(Cl)c4c(c3)CC(CNC(=O)/C=C/c3ccc(N)nc3)O4)cc2C1=O (stereo not drawn) [Compound 343, (E)-3-(6-aminopyridin-3-yl)-N-((7-chloro-5-(2-methyl-1,3-dioxoisoindolin-5-yl)-2,3-dihydrobenzofuran-2-yl)methyl)acrylamide] | 100 to 5000 nM | > 30000 nM | < 100 nM |  |  |  |
| Nc1ccc(/C=C/C(=O)NCC2Cc3c(-c4ccccc4C(=O)N4CCOCC4)ccc(Cl)c3O2)cn1 (stereo not drawn) [Compound 344, (E)-3-(6-aminopyridin-3-yl)-N-((7-chloro-4-(2-(morpholine-4-carbonyl)phenyl)-2,3-dihydrobenzofuran-2-yl)methyl)acrylamide] | < 100 nM | 100 to 5000 nM | < 100 nM |  |  |  |
| COc1cc(-c2ccc(C(=O)N3CCOCC3)cc2)cc2c1OC(CNC(=O)/C=C/c1ccc(N)nc1)C2 (stereo not drawn) [Compound 345, (E)-3-(6-aminopyridin-3-yl)-N-((7-methoxy-5-(4-(morpholine-4-carbonyl)phenyl)-2,3-dihydrobenzofuran-2-yl)methyl)acrylamide] |  |  |  | < 100 nM | 100 to 5000 nM | < 100 nM |
| Nc1ccc(/C=C/C(=O)NCC2Cc3cc(-c4ccc(C(=O)N5CCOCC5)cc4)cc(C(F)(F)F)c3O2)cn1 (stereo not drawn) [Compound 346, (E)-3-(6-aminopyridin-3-yl)-N-((5-(4-(morpholine-4-carbonyl)phenyl)-7-(trifluoromethyl)-2,3-dihydrobenzofuran-2-yl)methyl)acrylamide] | < 100 nM | 100 to 5000 nM | < 100 nM |  |  |  |
| Nc1ccc(/C=C/C(=O)NCC2Cc3cc(-c4ccc(C(=O)N5CCOCC5)cc4)cc(O)c3O2)cn1 (stereo not drawn) [Compound 347, (E)-3-(6-aminopyridin-3-yl)-N-((7-hydroxy-5-(4-(morpholine-4-carbonyl)phenyl)-2,3-dihydrobenzofuran-2-yl)methyl)acrylamide] | 100 to 5000 nM | > 30000 nM | 100 to 5000 nM |  |  |  |
| Nc1ccc(/C=C/C(=O)NCC2Oc3c(Cl)cc(-c4ccc(C(=O)N5CCOCC5)cc4)cc3C2=O)cn1 (stereo not drawn) [Compound 348, (E)-3-(6-aminopyridin-3-yl)-N-((7-chloro-5-(4-(morpholine-4-carbonyl)phenyl)-3-oxo-2,3-dihydrobenzofuran-2-yl)methyl)acrylamide] |  |  |  | 100 to 5000 nM | 5000 to 30000 nM | 100 to 5000 nM |
| CC1(CNC(=O)/C=C/c2ccc(N)nc2)Cc2cc(-c3ccc(C(=O)N4CCOCC4)cc3)cc(Cl)c2O1 (stereo not drawn) [Compound 349, (E)-3-(6-aminopyridin-3-yl)-N-((7-chloro-2-methyl-5-(4-(morpholine-4-carbonyl)phenyl)-2,3-dihydrobenzofuran-2-yl)methyl)acrylamide] | 100 to 5000 nM | 100 to 5000 nM | < 100 nM |  |  |  |
| Nc1ccc(CNC(=O)/C=C/C2Cc3cc(-c4ccc(S(=O)(=O)N5CCOCC5)cc4)cc(Cl)c3O2)cn1 (stereo not drawn) [Compound 350, (E)-N-((6-aminopyridin-3-yl)methyl)-3-(7-chloro-5-(4-(morpholinosulfonyl)phenyl)-2,3-dihydrobenzofuran-2-yl)acrylamide] | 100 to 5000 nM | > 30000 nM | 100 to 5000 nM |  |  |  |
| Nc1ccc(CNC(=O)/C=C/C2Cc3cc(-c4ccc(C(=O)N5CC(F)(F)C5)cc4)cc(Cl)c3O2)cn1 (stereo not drawn) [Compound 351, (E)-N-((6-aminopyridin-3-yl)methyl)-3-(7-chloro-5-(4-(3,3-difluoroazetidine-1-carbonyl)phenyl)-2,3-dihydrobenzofuran-2-yl)acrylamide] | 100 to 5000 nM | 100 to 5000 nM | 100 to 5000 nM |  |  |  |
| Nc1ccc(CNC(=O)/C=C/C2Cc3c(-c4ccc(C(=O)N5CC(F)C5)cc4)ccc(Cl)c3O2)cn1 (stereo not drawn) [Compound 352, (E)-N-((6-aminopyridin-3-yl)methyl)-3-(7-chloro-4-(4-(3-fluoroazetidine-1-carbonyl)phenyl)-2,3-dihydrobenzofuran-2-yl)acrylamide] | 100 to 5000 nM | > 30000 nM | 5000 to 30000 nM |  |  |  |
| CCOC(=O)CCOCCOCCC(=O)N1CCN(C(=O)c2ccc(-c3cc(Cl)c4c(c3)CC(CNC(=O)/C=C/c3ccc(N)nc3)O4)cc2)CC1 (stereo not drawn) [Compound 354, (E)-ethyl 3-(2-(3-(4-(4-(2-((3-(6-aminopyridin-3-yl)acrylamido)methyl)-7-chloro-2,3-dihydrobenzofuran-5-yl)benzoyl)piperazin-1-yl)-3-oxopropoxy)ethoxy)propanoate] | < 100 nM | 5000 to 30000 nM | < 100 nM |  |  |  |
| CC(C)(C)c1ccc(-c2ccc(C(=O)N3CCOCC3)cc2)c2c1OC(CNC(=O)/C=C/c1ccc(N)nc1)C2 (stereo not drawn) [Compound 355, (E)-3-(6-aminopyridin-3-yl)-N-((7-(tert-butyl)-4-(4-(morpholine-4-carbonyl)phenyl)-2,3-dihydrobenzofuran-2-yl)methyl)acrylamide] | > 30000 nM | > 30000 nM | 100 to 5000 nM |  |  |  |
| Nc1ccc(CNC(=O)/C=C/C2Cc3cc(-c4cccc(S(=O)(=O)N5CCOCC5)c4)cc(Cl)c3O2)cn1 (stereo not drawn) [Compound 357, (E)-N-((6-aminopyridin-3-yl)methyl)-3-(7-chloro-5-(3-(morpholinosulfonyl)phenyl)-2,3-dihydrobenzofuran-2-yl) acrylamide] | < 100 nM | 100 to 5000 nM | < 100 nM |  |  |  |
| Nc1ccc(CNC(=O)/C=C/C2Cc3cc(-c4ccc(C(=O)N5CC[C@@H](F)C5)cc4)cc(Cl)c3O2)cn1 (stereo partly drawn) [Compound 358, (E)-N-((6-aminopyridin-3-yl)methyl)-3-(7-chloro-5-(4-((R)-3-fluoropyrrolidine-1-carbonyl)phenyl)-2,3-dihydrobenzofuran-2-yl)acrylamide] | 100 to 5000 nM | > 30000 nM | 100 to 5000 nM |  |  |  |
| Nc1ccc(CNC(=O)/C=C/C2Cc3cc(-c4ccc(C(=O)N5CC[C@H](F)C5)cc4)cc(Cl)c3O2)cn1 (stereo partly drawn) [Compound 359, (E)-N-((6-Aminopyridin-3-yl)methyl)-3-(7-chloro-5-(4-((S)-3-fluoropyrrolidine-1-carbonyl)phenyl)-2,3-dihydrobenzofuran-2-yl)acrylamide] | 100 to 5000 nM | > 30000 nM | 5000 to 30000 nM |  |  |  |
| Nc1ccc(CNC(=O)/C=C/C2Cc3cc(-c4ccccc4S(=O)(=O)N4CCOCC4)cc(Cl)c3O2)cn1 (stereo not drawn) [Compound 360, (E)-N-((6-aminopyridin-3-yl)methyl)-3-(7-chloro-5-(2-(morpholinosulfonyl)phenyl)-2,3-dihydrobenzofuran-2-yl)acrylamide] | < 100 nM | 100 to 5000 nM | < 100 nM |  |  |  |
